Source: ChEMBL document CHEMBL1275550, “In vitro activity of doripenem, a carbapenem for the treatment of challenging infections caused by gram-negative bacteria, against recent clinical isolates from the United States” (2008)
Values after ≈ are worked out from the molar mass of the structure shown.

How the values were obtained:
Streptococcus pneumoniae [1] = experiment: Antimicrobial activity against penicillin-resistant Streptococcus pneumoniae assessed as resistant isolate by broth microdilution method; type: functional
Enterobacteriaceae [2] = experiment: Antimicrobial activity against ceftazidime-susceptible Enterobacteriaceae by broth microdilution method; type: functional
Enterobacteriaceae [3] = experiment: Antimicrobial activity against Ceftazidime non-susceptible Enterobacteriaceae by broth microdilution method; type: functional
Enterobacteriaceae [4] = experiment: Antimicrobial activity against ceftazidime-susceptible Enterobacteriaceae assessed as susceptible isolate by broth microdilution method; type: functional
Enterobacteriaceae [5] = experiment: Antimicrobial activity against ceftazidime-susceptible Enterobacteriaceae assessed as intermediate isolate by broth microdilution method; type: functional
Enterobacteriaceae [6] = experiment: Antimicrobial activity against Ceftazidime non-susceptible Enterobacteriaceae assessed as intermediate isolate by broth microdilution method; type: functional
Escherichia coli [7] = experiment: Antimicrobial activity against Escherichia coli assessed as intermediate isolate by broth microdilution method; type: functional
Escherichia coli [8] = experiment: Antimicrobial activity against Non-ESBL Escherichia coli assessed as susceptible isolate by broth microdilution method; type: functional
Escherichia coli [9] = experiment: Antimicrobial activity against Non-ESBL Escherichia coli assessed as intermediate isolate by broth microdilution method; type: functional
Escherichia coli [10] = experiment: Antimicrobial activity against ESBL producing Escherichia coli assessed as susceptible isolate by broth microdilution method; type: functional
Klebsiella pneumoniae [11] = experiment: Antimicrobial activity against Non-ESBL Klebsiella pneumoniae assessed as susceptible isolate by broth microdilution method; type: functional
Klebsiella pneumoniae [12] = experiment: Antimicrobial activity against Non-ESBL Klebsiella pneumoniae assessed as intermediate isolate by broth microdilution method; type: functional
Klebsiella pneumoniae [13] = experiment: Antimicrobial activity against ESBL producing Klebsiella pneumoniae assessed as susceptible isolate by broth microdilution method; type: functional
Proteus mirabilis [14] = experiment: Antimicrobial activity against Proteus mirabilis by broth microdilution method; type: functional
Proteus mirabilis [15] = experiment: Antimicrobial activity against Proteus mirabilis assessed as susceptible isolate by broth microdilution method; type: functional
Proteus mirabilis [16] = experiment: Antimicrobial activity against Proteus mirabilis assessed as intermediate isolate by broth microdilution method; type: functional
Pseudomonas aeruginosa [17] = experiment: Antimicrobial activity against Pseudomonas aeruginosa isolated from non-ICU patient by broth microdilution method; type: functional
Pseudomonas aeruginosa [18] = experiment: Antimicrobial activity against Pseudomonas aeruginosa isolated from ICU patient by broth microdilution method; type: functional
Proteus mirabilis [19] = experiment: Antimicrobial activity against Non-ESBL Proteus mirabilis assessed as resistant isolate by broth microdilution method; type: functional
Proteus mirabilis [20] = experiment: Antimicrobial activity against ESBL producing Proteus mirabilis assessed as susceptible isolate by broth microdilution method; type: functional
Proteus mirabilis [21] = experiment: Antimicrobial activity against ESBL producing Proteus mirabilis assessed as intermediate isolate by broth microdilution method; type: functional
Enterobacter cloacae [22] = experiment: Antimicrobial activity against Enterobacter cloacae by broth microdilution method; type: functional
Enterobacter cloacae [23] = experiment: Antimicrobial activity against Enterobacter cloacae with nonderepressed AmpC beta-lactamsae by broth microdilution method; type: functional
Enterobacter cloacae [24] = experiment: Antimicrobial activity against Enterobacter cloacae assessed as susceptible isolate by broth microdilution method; type: functional
Enterobacter cloacae [25] = experiment: Antimicrobial activity against Enterobacter cloacae assessed as intermediate isolate by broth microdilution method; type: functional
Enterobacter cloacae [26] = experiment: Antimicrobial activity against Enterobacter cloacae with derepressed AmpC beta-lactamsae assessed as susceptible isolate by broth microdilution method; type: functional
Citrobacter [27] = experiment: Antimicrobial activity against Citrobacter with derepressed AmpC beta-lactamsae by broth microdilution method; type: functional
Citrobacter [28] = experiment: Antimicrobial activity against Citrobacter with nonderepressed AmpC beta-lactamsae assessed as intermediate isolate by broth microdilution method; type: functional
Citrobacter [29] = experiment: Antimicrobial activity against Citrobacter with derepressed AmpC beta-lactamsae assessed as intermediate isolate by broth microdilution method; type: functional
Serratia marcescens [30] = experiment: Antimicrobial activity against Serratia marcescens assessed as intermediate isolate by broth microdilution method; type: functional
Serratia marcescens [31] = experiment: Antimicrobial activity against Serratia marcescens assessed as resistant isolate by broth microdilution method; type: functional
Serratia marcescens [32] = experiment: Antimicrobial activity against Ceftazidime susceptible Serratia marcescens assessed as susceptible isolate by broth microdilution method; type: functional
Serratia marcescens [33] = experiment: Antimicrobial activity against Ceftazidime non-susceptible Serratia marcescens assessed as susceptible isolate by broth microdilution method; type: functional
Serratia marcescens [34] = experiment: Antimicrobial activity against Ceftazidime non-susceptible Serratia marcescens assessed as intermediate isolate by broth microdilution method; type: functional
Pseudomonas aeruginosa [35] = experiment: Antimicrobial activity against imipenem susceptible Pseudomonas aeruginosa assessed as intermediate isolate by broth microdilution method; type: functional
Pseudomonas aeruginosa [36] = experiment: Antimicrobial activity against imipenem non-susceptible Pseudomonas aeruginosa assessed as susceptible isolate by broth microdilution method; type: functional
Pseudomonas aeruginosa [37] = experiment: Antimicrobial activity against imipenem non-susceptible Pseudomonas aeruginosa assessed as intermediate isolate by broth microdilution method; type: functional
Acinetobacter [38] = experiment: Antimicrobial activity against imipenem non-susceptible Acinetobacter by broth microdilution method; type: functional
Acinetobacter [39] = experiment: Antimicrobial activity against Acinetobacter assessed as susceptible isolate by broth microdilution method; type: functional
Acinetobacter [40] = experiment: Antimicrobial activity against Acinetobacter assessed as intermediate isolate by broth microdilution method; type: functional
Acinetobacter [41] = experiment: Antimicrobial activity against Acinetobacter assessed as resistant isolate by broth microdilution method; type: functional
Acinetobacter [42] = experiment: Antimicrobial activity against imipenem susceptible Acinetobacter assessed as susceptible isolate by broth microdilution method; type: functional
Acinetobacter [43] = experiment: Antimicrobial activity against imipenem non-susceptible Acinetobacter assessed as susceptible isolate by broth microdilution method; type: functional
Acinetobacter [44] = experiment: Antimicrobial activity against imipenem non-susceptible Acinetobacter assessed as intermediate isolate by broth microdilution method; type: functional
Acinetobacter [45] = experiment: Antimicrobial activity against imipenem non-susceptible Acinetobacter assessed as resistant isolate by broth microdilution method; type: functional
Staphylococcus aureus = experiment: Antimicrobial activity against methicillin-resistant Staphylococcus aureus by broth microdilution method; type: functional
Staphylococcus = experiment: Antimicrobial activity against methicillin-susceptible coagulase-negative Staphylococcus by broth microdilution method; type: functional
Streptococcus pneumoniae [46] = experiment: Antimicrobial activity against penicillin-intermediate Streptococcus pneumoniae by broth microdilution method; type: functional
Pseudomonas aeruginosa [47] = experiment: Antimicrobial activity against Pseudomonas aeruginosa isolated from non-ICU patient by broth microdilution method
Pseudomonas aeruginosa [48] = experiment: Antimicrobial activity against Pseudomonas aeruginosa isolated from ICU patient assessed as susceptible isolate by broth microdilution method
Pseudomonas aeruginosa [49] = experiment: Antimicrobial activity against Pseudomonas aeruginosa isolated from ICU patient assessed as intermediate isolate by broth microdilution method
Pseudomonas aeruginosa [50] = experiment: Antimicrobial activity against Pseudomonas aeruginosa isolated from non-ICU patient assessed as resistant isolate by broth microdilution method
Klebsiella pneumoniae [51] = experiment: Antimicrobial activity against ESBL producing Klebsiella pneumoniae assessed as resistant isolate by broth microdilution method; type: functional
Pseudomonas aeruginosa [52] = experiment: Antimicrobial activity against Ceftazidime non-susceptible Pseudomonas aeruginosa by broth microdilution method; type: functional
[53] = Staphylococcus, read-out: MIC50

## C[C@@H](O)[C@H]1C(=O)N2C(C(=O)O)=C(SCCNC=N)C[C@H]12 [IMIPENEM ANHYDROUS]
Streptococcus pneumoniae [1]
  Activity: 2.1%
Enterobacteriaceae [2]
  MIC50: 0.5 µg/mL (≈ 1.67 µM)
  MIC90: 2 µg/mL (≈ 6.68 µM)
Enterobacteriaceae [3]
  MIC50: 1 µg/mL (≈ 3.34 µM)
  MIC90: 2 µg/mL (≈ 6.68 µM)
Enterobacteriaceae [4]
  Activity: 99.6%
Enterobacteriaceae [5]
  Activity: 0.3%
Enterobacteriaceae [6]
  Activity: 1.7%
Escherichia coli [7]
  Activity: 0%
Escherichia coli [8]
  Activity: 100%
Escherichia coli [9]
  Activity: 0%
Escherichia coli [10]
  Activity: 100%
Klebsiella pneumoniae [11]
  Activity: 99.8%
Klebsiella pneumoniae [12]
  Activity: 0.1%
Klebsiella pneumoniae [13]
  Activity: 95.5%
Proteus mirabilis [14]
  MIC50: 2 µg/mL (≈ 6.68 µM)
  MIC90: 4 µg/mL (≈ 13.4 µM)
Proteus mirabilis [15]
  Activity: 97.3%
Proteus mirabilis [16]
  Activity: 2.5%
Pseudomonas aeruginosa [17]
  MIC50: 4 µg/mL (≈ 13.4 µM)
  MIC90: 32 µg/mL (≈ 107 µM)
Pseudomonas aeruginosa [18]
  MIC50: 4 µg/mL (≈ 13.4 µM)
  MIC90: 32 µg/mL (≈ 107 µM)
Proteus mirabilis [19]
  Activity: 0.2%
Proteus mirabilis [20]
  Activity: 100%
Proteus mirabilis [21]
  Activity: 0%
Enterobacter cloacae [22]
  MIC50: 1 µg/mL (≈ 3.34 µM)
  MIC90: 2 µg/mL (≈ 6.68 µM)
Enterobacter cloacae [23]
  MIC50: 1 µg/mL (≈ 3.34 µM)
  MIC90: 2 µg/mL (≈ 6.68 µM)
Enterobacter cloacae [24]
  Activity: 99.6%
Enterobacter cloacae [25]
  Activity: 0.4%
Enterobacter cloacae [26]
  Activity: 100%
Citrobacter [27]
  MIC50: 1 µg/mL (≈ 3.34 µM)
  MIC90: 2 µg/mL (≈ 6.68 µM)
Citrobacter [28]
  Activity: 0%
Citrobacter [29]
  Activity: 0%
Serratia marcescens [30]
  Activity: 0.3%
Serratia marcescens [31]
  Activity: 0.8%
Serratia marcescens [32]
  Activity: 98.9%
Serratia marcescens [33]
  Activity: 100%
Serratia marcescens [34]
  Activity: 0%
Pseudomonas aeruginosa [35]
  Activity: 0%
Pseudomonas aeruginosa [36]
  Activity: 0%
Pseudomonas aeruginosa [37]
  Activity: 32.4%
Acinetobacter [38]
  MIC50: > 32 µg/mL
  MIC90: > 32 µg/mL
Acinetobacter [39]
  Activity: 82.4%
Acinetobacter [40]
  Activity: 0.7%
Acinetobacter [41]
  Activity: 17%
Acinetobacter [42]
  Activity: 100%
Acinetobacter [43]
  Activity: 0%
Acinetobacter [44]
  Activity: 3.9%
Acinetobacter [45]
  Activity: 96.1%
Staphylococcus aureus
  MIC50: 0.25 µg/mL (≈ 0.835 µM)
  MIC90: 8 µg/mL (≈ 26.7 µM)
Staphylococcus; [53]
  MIC50: ≤ 0.015 µg/mL
Staphylococcus; Staphylococcus, read-out: MIC90
  MIC90: 0.03 µg/mL (≈ 0.1 µM)
Streptococcus pneumoniae [46]
  MIC50: 0.03 µg/mL (≈ 0.1 µM)
  MIC90: 0.25 µg/mL (≈ 0.835 µM)
Pseudomonas aeruginosa [47]
  Activity: 74.9%
Pseudomonas aeruginosa [48]
  Activity: 67.6%
Pseudomonas aeruginosa [49]
  Activity: 5.8%
Pseudomonas aeruginosa [50]
  Activity: 17.2%

## C[C@@H](O)[C@H]1C(=O)N2C(C(=O)O)=C(S[C@@H]3CN[C@H](C(=O)N(C)C)C3)[C@H](C)[C@H]12 [MEROPENEM]
Streptococcus pneumoniae [1]
  Activity: 2.3%
Enterobacteriaceae [2]
  MIC50: 0.06 µg/mL (≈ 0.156 µM)
  MIC90: 0.12 µg/mL (≈ 0.313 µM)
Enterobacteriaceae [3]
  MIC50: 0.12 µg/mL (≈ 0.313 µM)
  MIC90: 0.5 µg/mL (≈ 1.3 µM)
Enterobacteriaceae [4]
  Activity: 99.6%
Enterobacteriaceae [5]
  Activity: 0%
Enterobacteriaceae [6]
  Activity: 0.7%
Escherichia coli [7]
  Activity: 0%
Escherichia coli [8]
  Activity: 100%
Escherichia coli [9]
  Activity: 0%
Escherichia coli [10]
  Activity: 100%
Klebsiella pneumoniae [11]
  Activity: 99.8%
Klebsiella pneumoniae [12]
  Activity: 0%
Klebsiella pneumoniae [13]
  Activity: 95.5%
Klebsiella pneumoniae [51]
  Activity: 4.5%
Proteus mirabilis [14]
  MIC50: 0.12 µg/mL (≈ 0.313 µM)
  MIC90: 0.25 µg/mL (≈ 0.652 µM)
Proteus mirabilis [15]
  Activity: 100%
Proteus mirabilis [16]
  Activity: 0%
Pseudomonas aeruginosa [17]
  MIC50: 1 µg/mL (≈ 2.61 µM)
  MIC90: 16 µg/mL (≈ 41.7 µM)
Pseudomonas aeruginosa [18]
  MIC50: 1 µg/mL (≈ 2.61 µM)
  MIC90: 32 µg/mL (≈ 83.4 µM)
Proteus mirabilis [20]
  Activity: 100%
Proteus mirabilis [21]
  Activity: 0%
Enterobacter cloacae [22]
  MIC50: 0.06 µg/mL (≈ 0.156 µM)
  MIC90: 0.25 µg/mL (≈ 0.652 µM)
Enterobacter cloacae [23]
  MIC50: 0.06 µg/mL (≈ 0.156 µM)
  MIC90: 0.12 µg/mL (≈ 0.313 µM)
Enterobacter cloacae [24]
  Activity: 99.6%
Enterobacter cloacae [25]
  Activity: 0.4%
Enterobacter cloacae [26]
  Activity: 100%
Citrobacter [27]
  MIC50: 0.12 µg/mL (≈ 0.313 µM)
  MIC90: 0.25 µg/mL (≈ 0.652 µM)
Citrobacter [28]
  Activity: 0%
Citrobacter [29]
  Activity: 0%
Serratia marcescens [30]
  Activity: 0%
Serratia marcescens [31]
  Activity: 0.8%
Serratia marcescens [32]
  Activity: 99.2%
Serratia marcescens [33]
  Activity: 100%
Serratia marcescens [34]
  Activity: 0%
Pseudomonas aeruginosa [52]
  MIC50: 4 µg/mL (≈ 10.4 µM)
  MIC90: 32 µg/mL (≈ 83.4 µM)
Pseudomonas aeruginosa [35]
  Activity: 0.7%
Pseudomonas aeruginosa [36]
  Activity: 42.5%
Pseudomonas aeruginosa [37]
  Activity: 16.9%
Acinetobacter [38]
  MIC50: > 32 µg/mL
  MIC90: > 32 µg/mL
Acinetobacter [39]
  Activity: 80.6%
Acinetobacter [40]
  Activity: 1.4%
Acinetobacter [41]
  Activity: 18%
Acinetobacter [42]
  Activity: 97.9%
Acinetobacter [43]
  Activity: 0%
Acinetobacter [44]
  Activity: 0%
Acinetobacter [45]
  Activity: 100%
Staphylococcus
  MIC50: 0.12 µg/mL (≈ 0.313 µM)
Staphylococcus; [53]
  MIC50: 0.06 µg/mL (≈ 0.156 µM)
Pseudomonas aeruginosa [47]
  Activity: 83.9%
Pseudomonas aeruginosa [48]
  Activity: 74.1%
Pseudomonas aeruginosa [49]
  Activity: 7.9%
Pseudomonas aeruginosa [50]
  Activity: 12.4%
